Test: wn = mass fraction of the nth substance listed
Conditions: 298.15 K, 101 kPa, Liquid; for viscosity: Capillary tube (Ostwald / Ubbelohde) method; for mass density: Pycnometric method

C[S+](C)[O-] [dimethyl sulfoxide] + CC#N
Conditions | mass density [kg/m3] | viscosity [mPa·s]
w1 = 0.2 | 829.3 | 0.4196
w1 = 0.4 | 883.3 | 0.5249
w1 = 0.6 | 945.6 | 0.7147

From the NIST ThermoML archive (doi:10.1016/j.jct.2009.03.005)
